Reference: article PMC10011573, “Development of novel broad-spectrum antimicrobial lipopeptides derived from plantaricin NC8 β” (Scientific Reports, 2023)
Like-named read-outs stand apart in the source and are kept apart here. Non-standard residues stand in square brackets, D forms with d. Residues, ends and D or L forms follow the SMILES beside them. No end group written: not given here. *: point of attachment. Heptanoyl = CCCCCCC(=O)*; Pentanoyl = CCCCC(=O)*

Legend:
P. aeruginosa = conditions: 20 h
E. faecium = conditions: 20 h
E. cloacae = conditions: 20 h
K. pneumoniae = conditions: 20 h
A. baumannii = conditions: 20 h
[1] = tested on: S. aureus (ATCC 29213, MSSA); conditions: ATCC 29213, 20 h
E. coli (K-12 MG1655) [2] = tested on: E. coli (K-12 MG1655)
S. aureus (ATCC 29213) = format: cell-based; conditions: ATCC 29213, 20 h
[3] = Carboxyfluorescein release assay, bacterial liposome model; format: biochemical; conditions: 75:25 POPC:POPG liposomes, 25 µM lipid, 10 mM PBS pH 7.4, 10^–5–10^2 µM peptide, 60 min, fluorescence, Hill fit, n = 3; read-out: EC50 Bacterial (concentration that triggers 50% CF release)
How it was run: (§1)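 CF-loaded extruded 0.1 µm unilamellar liposomes: bacterial POPC:POPG 75:25, mammalian POPC:POPS:Chol 65:5:30. Liposomes at 25 µM lipid in PBS pH 7.4 incubated with peptide (10^–5–10^2 µM; n = 3), fluorescence read every 2.5 min for 1 h. Release normalized to 1% Triton X-100; EC50 from Hill-1 fit.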

[4] = Carboxyfluorescein release assay, mammalian liposome model; format: biochemical; conditions: 65:5:30 POPC:POPS:Chol. liposomes, 25 µM lipid, 10 mM PBS pH 7.4, 10^–5–10^2 µM peptide, 60 min, fluorescence, Hill fit, n = 3; read-out: EC50 Mammalial (concentration that triggers 50% CF release)
How it was run: as §1

human erythrocytes = experiment: Hemolytic activity; format: cell-based; conditions: 15% suspension in PBS, 1 h, 37 °C, absorbance 540 nm, highest tested concentration 100 µM
Experimental: The hemolytic activity of the lipopeptides was investigated by collecting blood from healthy volunteers in heparinized vacutainers. Briefly, the blood was centrifuged at 600 × g for 5 min and the erythrocyte pellet was washed three times in PBS. The cells were then suspended in PBS and added to 96-well plates (15% erythrocyte suspension/well), containing the lipopeptides with two-fold serial dilution. The plates were incubated for 1 h at 37 °C followed by centrifugation for 5 min at 900×g and absorbance measurement of the supernatants at 540 nm. Hemolytic activity (%) was calculated by subtracting the negative control from all values and normalization against the positive control (0.5% Triton X-100), that was set to 100%. All experiments, each in duplicate, were repeated three times.

E. coli (K-12 MG1655) [5] = format: cell-based; conditions: K-12, 20 h
Experimental: The broth microdilution method was used to determine minimal inhibitory concentration (MIC) and minimal bactericidal concentration (MBC), in accordance with the EUCAST standards for the broth microdilution method. Two-fold serial dilutions of the lipopeptides were used, and the final concentrations ranged from 0.19 to 100 µM. In brief, two-fold serial dilutions of the lipopeptides were performed in a 96-well plate in PBS, with a final volume of 100 µl per well, after which 100 µl of LB-broth media containing approximately 5 × 10^5 CFU/ml of bacteria was added to each well. The plate was then incubated for 20 h in 37 °C on a shaker (400 rpm). The effect of lipopeptide-antibiotic combinations was investigated by performing checkerboard assays. The assays were performed in accordance with the MIC and MBC tests conducted above, but with horizontal and longitudinal two-fold serial dilutions of the tested compounds. […] The fractional inhibitory concentration (FIC) and fractional bactericidal concentration (FBC) were calculated by the equation (MIC or MBC of peptide in combination/MIC or MBC of peptide alone) + (MIC or MBC of antibiotic in combination/MIC or MBC of antibiotic alone). Synergy was defined as FIC/FBC ≤ 0.5, additive when 0.5 < FIC/FBC ≤ 1, indifferent when 1 < FIC/FBC < 2 and antagonistic when FIC/FBC ≥ 2. All experiments were repeated at least three times.

[6] = Dynamic light scattering, critical aggregation concentration; format: physicochemical; conditions: DLS scattering intensity at 90°, 10 mM PBS pH 7.4, serial dilution 100 µM to 0.01 nM, 22 °C, average of 10 runs of 30 s; estimated
Experimental: Lipopeptide aggregation was evaluated on a ALV/CGS-8F Platform (ALV-GmbH, Langen, Germany) equipped with a […] He–Ne laser. Scattered light was collected at 90°. PBS (10 mM, pH 7.4) was chosen as buffer, and filtered with a 0.22 µm filter prior to use. The samples were prepared in a cylindrical glass cuvette immersed in refractive-index matching toluene. The peptides were serially diluted between 100 µM and 0.01 nM, sonicated for 1 min and incubated for 5 min at 22 °C and vortexed prior to measuring. The temperature was controlled throughout the experiment with the use of a circulating water bath. Data were analysed with ALV-Correlator (Version 3.0, ALV-GmbH, Langen, Germany) software, and the scattering intensity was obtained through an average of 10 consecutive 30 s runs.

[7] = Table 3, K-12 MG1655, broth microdilution, 50:50 PBS/LB-broth, 200 µL, 20 h, 37 °C

Compound | MBC (P. aeruginosa) | MIC (P. aeruginosa) | MBC (E. faecium) | MIC (E. faecium) | MBC (E. cloacae) | MIC (E. cloacae) | MBC (K. pneumoniae) | MIC (K. pneumoniae) | MBC (A. baumannii) | MIC (A. baumannii) | S. aureus MBC [1] | S. aureus MIC [1] | E. coli MBC (E. coli (K-12 MG1655) [2]; [7]) | E. coli MIC (E. coli (K-12 MG1655) [2]; [7]) | S. aureus MIC, lipopeptide alone (S. aureus (ATCC 29213)) | EC50 [3] | EC50 [4] | HC, hemolytic concentration at 5% hemolytic activity (human erythrocytes) | E. coli MIC, lipopeptide alone (E. coli (K-12 MG1655) [5]) | critical aggregation concentration (CAC) [6] | also measured
CCCCC(=O)N[C@H](CC(C)C)C(=O)NCC(=O)N[C@H](CC(C)C)C(=O)N[C@H](CCCCN)C(=O)N[C@H](CC(C)C)C(=O)N[C@H](CC(C)C)C(=O)N[C@H](Cc1c[nH]c2ccccc12)C(=O)N[C@H](CO)C(=O)N[C@H](C)C(=O)N[C@H](Cc1ccc(O)cc1)C(=O)N[C@H](CCCCN)C(=O)N[C@H](Cc1c[nH]cn1)C(=O)N[C@H](CCCNC(=N)N)C(=O)N[C@H](CCCCN)C(=O)N[C@@H](C(=O)N[C@H](CC(C)C)C(N)=O)[C@H](C)O [D-6-C5-Leu] (Pentanoyl-[dL]G[dL][dK][dL][dL][dW][dS][dA][dY][dK][dH][dR][dK][dT][dL]-NH2) | 25 µM | 12.5 µM | 3.1 µM | 3.1 µM | 50 µM | 25 µM | 25 µM | 12.5 µM | 3.1 µM | 3.1 µM | 3.1 µM | 3.1 µM | 3.1 µM | 3.1 µM | 3.1 µM | 130 nM | 4.08 µM | > 100 µM | 3.1 µM | – | S. aureus MBC, lipopeptide alone (S. aureus (ATCC 29213)): 3.1 µM; E. coli MBC, lipopeptide alone (E. coli (K-12 MG1655) [5]): 3.1 µM
CCCCC(=O)N[C@H](CC(C)C)C(=O)NCC(=O)N[C@@H](C(=O)N[C@H](CCCCN)C(=O)N[C@@H](C(=O)N[C@H](CC(C)C)C(=O)N[C@H](Cc1c[nH]c2ccccc12)C(=O)N[C@H](CO)C(=O)N[C@H](C)C(=O)N[C@H](Cc1ccc(O)cc1)C(=O)N[C@H](CCCCN)C(=O)N[C@H](Cc1c[nH]cn1)C(=O)N[C@H](CCCNC(=N)N)C(=O)N[C@H](CCCCN)C(=O)N[C@@H](C(=O)N[C@@H](C(N)=O)[C@H](C)CC)[C@H](C)O)[C@H](C)CC)[C@H](C)CC [D-6-C5] (Pentanoyl-[dL]G[dI][dK][dI][dL][dW][dS][dA][dY][dK][dH][dR][dK][dT][dI]-NH2) | 50 µM | 25 µM | 3.1 µM | 3.1 µM | 50 µM | 25 µM | 50 µM | 25 µM | 3.1 µM | 3.1 µM | 6.2 µM | 3.1 µM | 3.1 µM | 3.1 µM | 3.1 µM | 120 nM | 13.1 µM | > 100 µM | 3.1 µM | – | –
CCCCCCC(=O)N[C@@H](CC(C)C)C(=O)NCC(=O)N[C@H](C(=O)N[C@@H](CCCCN)C(=O)N[C@H](C(=O)N[C@@H](CC(C)C)C(=O)N[C@@H](Cc1c[nH]c2ccccc12)C(=O)N[C@@H](CO)C(=O)N[C@@H](C)C(=O)N[C@@H](Cc1ccc(O)cc1)C(=O)N[C@@H](CCCCN)C(=O)N[C@@H](Cc1c[nH]cn1)C(=O)N[C@@H](CCCNC(=N)N)C(=O)N[C@@H](CCCCN)C(=O)N[C@H](C(=O)N[C@H](C(N)=O)[C@@H](C)CC)[C@@H](C)O)[C@@H](C)CC)[C@@H](C)CC [L-6-C7] (Heptanoyl-LGIKILWSAYKHRKTI-NH2) | – | – | – | – | – | – | – | – | – | – | 3.1 µM | 3.1 µM | 6.2 µM | 6.2 µM | – | 220 nM | 1.95 µM | 80 µM | – | 0.8 µM | –
LGIKILWSAYKHRKTI-NH2 [L-6] | – | – | – | – | – | – | – | – | – | – | > 100 µM | > 100 µM | – | – | – | 150 nM | > 100 µM | – | – | 10 µM | E. coli MBC (E. coli (K-12 MG1655) [2]; K-12, 20 h): > 100 µM; E. coli MIC (E. coli (K-12 MG1655) [2]; K-12, 20 h): > 100 µM
